Drawing on patent publication US20120101095A1, “ALKOXY-THIENOPYRIMIDINES AS TGF-BETA RECEPTOR KINASE MODULATORS” (priority 2009, published 2012), this text covers IC50 for 25 compounds.

One may read the IC50 as the concentration that inhibits the measured activity by half.

The experiment has as its target T1, GST-ALK5 (Homo sapiens, UniProt P36897).
T1 sequence (P36897 34-503): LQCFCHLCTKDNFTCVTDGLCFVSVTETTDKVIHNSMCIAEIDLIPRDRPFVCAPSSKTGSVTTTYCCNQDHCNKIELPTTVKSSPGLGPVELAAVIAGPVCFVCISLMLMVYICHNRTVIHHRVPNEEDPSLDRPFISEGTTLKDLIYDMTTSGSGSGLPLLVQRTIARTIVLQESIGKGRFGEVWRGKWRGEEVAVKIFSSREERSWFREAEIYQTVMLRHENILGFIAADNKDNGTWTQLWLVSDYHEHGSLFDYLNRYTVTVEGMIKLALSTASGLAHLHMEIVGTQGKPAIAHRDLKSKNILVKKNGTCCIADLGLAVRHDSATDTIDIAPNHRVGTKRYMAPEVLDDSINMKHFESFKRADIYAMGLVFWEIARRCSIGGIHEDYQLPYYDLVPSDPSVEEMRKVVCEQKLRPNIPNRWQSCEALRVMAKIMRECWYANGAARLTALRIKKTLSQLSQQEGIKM
The experiment can be described thus: In-vitro (enzyme) kinase assay, 384-well flashplate, GST-SMAD2 substrate. The experiment is classed as biochemical. The following applies: 31.2 nM GST-ALK5, 439 nM GST-SMAD2, 3 mM ATP, 30° C., 45 min. On the procedure:
In-Vitro (Enzyme) Assay for Determination of the Efficacy of Inhibitors of the Inhibition of TGF-Beta-Mediated Effects
The kinase assay was carried out as 384-well flashplate assay. 31.2 nM of GST-ALK5, 439 nM of GST-SMAD2 and 3 mM of ATP (with 0.3 μCi of ^33P-ATP/well) were incubated in a total volume of 35 μl (20 mM of HEPES, 10 mM of MgCl2, 5 mM of MnCl2, 1 mM of DTT, 0.1% of BSA, pH 7.4) without or with test substance (5-10 concentrations) at 30° C. for 45 min. The reaction was stopped using 25 μl of 200 mM EDTA solution, filtered with suction at room temperature after 30 min, and the wells were washed with 3 times 100 μl of 0.9% NaCl solution. Radioactivity was measured in the TopCount. The IC50 values were calculated using RS1 (Table 1). Above and below, all temperatures were indicated in ° C.
`NC(=O)c1sc2nc(OC3CCC(O)C3)nc(-c3cccc(Cl)c3)c2c1N` (stereo not shown) [No 64, 5-Amino-4-(3-chloro-phenyl)-2-(3-hydroxy-cyclopentyloxy)-thieno[2,3-d]pyrimidine-6-carboxylic acid amide] showed an IC50 of 100 to 500 nM.
Then `NC(=O)c1sc2nc(OCCN3CCOCC3=O)nc(-c3cccc(Cl)c3)c2c1N` [No 55, 5-Amino-4-(3-chloro-phenyl)-2-[2-(3-oxo-morpholin-4-yl)-ethoxy]-thieno[2,3-d]pyrimidine-6-carboxylic acid amide], with less than 100 nM; and `Cc1ccc(-c2nc(OCCCn3cccn3)nc3sc(C(N)=O)c(N)c23)o1` [No 39, 5-Amino-4-(5-methyl-furan-2-yl)-2-(3-pyrazol-1-yl-propoxy)-thieno[2,3-d]pyrimidine-6-carboxylic acid amide], with 100 to 500 nM; and `CC(C)(CO)COc1nc(-c2cccc(Cl)c2)c2c(N)c(C(N)=O)sc2n1` [No 68, 5-Amino-4-(3-chloro-phenyl)-2-(3-hydroxy-2,2-dimethyl-propoxy)-thieno[2,3-d]pyrimidine-6-carboxylic acid amide], with 100 to 500 nM.
`NC(=O)c1sc2nc(OCC3CC3)nc(-c3cccc(C(F)(F)F)c3)c2c1N` [No 14, 5-Amino-2-cyclopropylmethoxy-4-(3-trifluoromethyl-phenyl)-thieno[2,3-d]pyrimidine-6-carboxylic acid amide] yielded an IC50 of more than 1000 nM.
`Cc1cccc(-c2nc(OCCn3cccn3)nc3sc(C(N)=O)c(N)c23)n1` [No 27, 5-Amino-4-(6-methyl-pyridin-2-yl)-2-(2-pyrazol-1-yl-ethoxy)-thieno[2,3-d]pyrimidine-6-carboxylic acid amide] gave an IC50 of less than 100 nM.
`Cc1ccc(-c2nc(OCCn3cccn3)nc3sc(C(N)=O)c(N)c23)o1` [No 29, 5-Amino-4-(5-methyl-furan-2-yl)-2-(2-pyrazol-1-yl-ethoxy)-thieno[2,3-d]pyrimidine-6-carboxylic acid amide] showed an IC50 of 100 to 500 nM.
The compound `CC(C)(C)OCCOc1nc(-c2cccc(C(F)(F)F)c2)c2c(N)c(C(N)=O)sc2n1` [No 12, 5-Amino-2-(2-tert-butoxy-ethoxy)-4-(3-trifluoromethyl-phenyl)-thieno[2,3-d]pyrimidine-6-carboxylic acid amide] had an IC50 of 500 to 1000 nM.
Then `Cc1ccc(-c2nc(OCc3ccn(C)n3)nc3sc(C(N)=O)c(N)c23)o1` [No 32, 5-Amino-4-(5-methyl-furan-2-yl)-2-(1-methyl-1H-pyrazol-3-ylmethoxy)-thieno[2,3-d]pyrimidine-6-carboxylic acid amide], with 100 to 500 nM; and `NC(=O)c1sc2nc(OCCO)nc(-c3cccc(C(F)(F)F)c3)c2c1N` [No 15, 5-Amino-2-(2-hydroxy-ethoxy)-4-(3-trifluoromethyl-phenyl)-thieno[2,3-d]pyrimidine-6-carboxylic acid amide], with 500 to 1000 nM; and `NC(=O)c1sc2nc(OCc3ccn(CCO)n3)nc(-c3cccc(Cl)c3)c2c1N` [No 74, 5-Amino-4-(3-chloro-phenyl)-2-[1-(2-hydroxy-ethyl)-1H-pyrazol-3-ylmethoxy]-thieno[2,3-d]pyrimidine-6-carboxylic acid amide], with less than 100 nM.
In turn, `NC(=O)c1sc2nc(OC[C@@H]3CCC(=O)N3)nc(-c3cccc(Cl)c3)c2c1N` [No 75, 5-Amino-4-(3-chloro-phenyl)-2-((S)-5-oxo-pyrrolidin-2-ylmethoxy)-thieno[2,3-d]pyrimidine-6-carboxylic acid amide] had an IC50 of 100 to 500 nM.
Consider `NC(=O)c1sc2nc(OC/C=C/CO)nc(-c3cccc(Cl)c3)c2c1N` [No 71, 5-Amino-4-(3-chloro-phenyl)-2-((E)-4-hydroxy-but-2-enyloxy)-thieno[2,3-d]pyrimidine-6-carboxylic acid amide], for which the IC50 was less than 100 nM.
Compound `NC(=O)c1sc2nc(OCCCn3cccn3)nc(-c3cccc(Cl)c3)c2c1N` [No 41, 5-Amino-4-(3-chloro-phenyl)-2-(3-pyrazol-1-yl-propoxy)-thieno[2,3-d]pyrimidine-6-carboxylic acid amide] returned a concentration for half-maximal inhibition (IC50) of less than 100 nM.
For `NC(=O)c1sc2nc(OC[C@H]3CCC(=O)N3)nc(-c3cccc(Cl)c3)c2c1N` [No 77, 5-Amino-4-(3-chloro-phenyl)-2-((R)-5-oxo-pyrrolidin-2-ylmethoxy)-thieno[2,3-d]pyrimidine-6-carboxylic acid amide] the value was 100 to 500 nM; for `COCCOc1nc(-c2cccc(Cl)c2)c2c(N)c(C(N)=O)sc2n1` [No 1, 5-Amino-4-(3-chloro-phenyl)-2-(2-methoxy-ethoxy)-thieno[2,3-d]pyrimidine-6-carboxylic acid amide], 100 to 500 nM.
Consider `Cc1ccc(-c2nc(OCc3ccccn3)nc3sc(C(N)=O)c(N)c23)o1` [No 38, 5-Amino-4-(5-methyl-furan-2-yl)-2-(pyridin-2-ylmethoxy)-thieno[2,3-d]pyrimidine-6-carboxylic acid amide], for which the IC50 was in the range of 100 to 500 nM.
In the case of `NC(=O)c1sc2nc(OC[C@@H]3CCCN3)nc(-c3cccc(Cl)c3)c2c1N` [No 76, 5-Amino-4-(3-chloro-phenyl)-2-((S)-1-pyrrolidin-2-ylmethoxy)-thieno[2,3-d]pyrimidine-6-carboxylic acid amide], the IC50 was more than 1000 nM.
`COc1nc(-c2ccc(C)o2)c2c(N)c(C(N)=O)sc2n1` [No 19, 5-Amino-2-methoxy-4-(5-methyl-furan-2-yl)-thieno[2,3-d]pyrimidine-6-carboxylic acid amide] came in with a half-maximal inhibitory concentration (IC50) of less than 100 nM.
On to `NC(=O)c1sc2nc(OCC3CCCC3)nc(-c3cccc(C(F)(F)F)c3)c2c1N` [No 8, 5-Amino-2-cyclopentylmethoxy-4-(3-trifluoromethyl-phenyl)-thieno[2,3-d]pyrimidine-6-carboxylic acid amide], for which the IC50 is more than 1000 nM.
The compound `COCc1cnn(CCOc2nc(-c3cccc(Cl)c3)c3c(N)c(C(N)=O)sc3n2)c1` [No 52, 5-Amino-4-(3-chloro-phenyl)-2-[2-(4-methoxymethyl-pyrazol-1-yl)-ethoxy]-thieno[2,3-d]pyrimidine-6-carboxylic acid amide] had an IC50 of 100 to 500 nM.
For `COCCOc1nc(-c2cccc(C(F)(F)F)c2)c2c(N)c(C(N)=O)sc2n1` [No 16, 5-Amino-2-(2-methoxy-ethoxy)-4-(3-trifluoromethyl-phenyl)-thieno[2,3-d]pyrimidine-6-carboxylic acid amide], the IC50 was in the range of 500 to 1000 nM.
For `NC(=O)c1sc2nc(OC/C=C\CO)nc(-c3cccc(Cl)c3)c2c1N` [No 58, 5-Amino-4-(3-chloro-phenyl)-2-((Z)-4-hydroxy-but-2-enyloxy)-thieno[2,3-d]pyrimidine-6-carboxylic acid amide] the value was less than 100 nM.
In turn, `NC(=O)c1sc2nc(OCCN3CCNC3=O)nc(-c3cccc(Cl)c3)c2c1N` [No 61, 5-Amino-4-(3-chloro-phenyl)-2-[2-(2-oxo-imidazolidin-1-yl)-ethoxy]-thieno[2,3-d]pyrimidine-6-carboxylic acid amide] yielded a 50% inhibitory concentration (IC50) of 100 to 500 nM.
`Cc1cccc(-c2nc(OCCO)nc3sc(C(N)=O)c(N)c23)n1` [No 26, 5-Amino-2-(2-hydroxy-ethoxy)-4-(6-methyl-pyridin-2-yl)-thieno[2,3-d]pyrimidine-6-carboxylic acid amide] registered an IC50 of less than 100 nM.
